The structures appear in SMILES notation.

The target of this assay is YKL-40 (Homo sapiens (Human), UniProt P36222). Description: YKL-40:4 assay, competitive chitin binding site AlphaScreen. To be noted: competition with biotinylated compound 4 (20 nM), YKL-40-histag 2.5 nM. On the technique in general: Alpha assays give light when donor and acceptor beads are brought close together.
Sequence of YKL-40 (P36222 22-383): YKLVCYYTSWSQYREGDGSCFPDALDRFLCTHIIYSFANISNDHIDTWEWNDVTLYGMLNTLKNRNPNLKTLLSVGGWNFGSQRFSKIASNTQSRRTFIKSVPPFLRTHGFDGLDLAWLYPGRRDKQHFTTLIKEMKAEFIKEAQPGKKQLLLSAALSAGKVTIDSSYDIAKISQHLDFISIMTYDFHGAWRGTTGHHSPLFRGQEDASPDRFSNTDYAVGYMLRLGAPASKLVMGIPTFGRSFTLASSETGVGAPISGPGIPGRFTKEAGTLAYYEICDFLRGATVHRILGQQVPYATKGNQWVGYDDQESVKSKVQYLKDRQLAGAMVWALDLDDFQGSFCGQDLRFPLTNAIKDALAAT
Consider `CC1CC(N2C[C@H](C)OC[C@@H]2Cc2ccc(Cl)cc2)CCN1c1cc(Cl)ccn1` (single isomer, unassigned) [Example 31, 2,2,2-trifluoroacetate], for which the IC50 (usually the concentration that inhibits the measured activity by half) fell in the range of 1 to 10 µM.

In the case of `CC1CC(N2C[C@H](C)OC[C@@H]2Cc2ccc(Cl)cc2)CCN1c1cc(Cl)ccn1` (single isomer, unassigned) [Example 32, 2,2,2-trifluoroacetate], the half-inhibitory concentration (IC50) was < 0.1 µM.

As for `CC(C)C[C@H]1CN(C2CCN(c3ccccn3)CC2)[C@@H](Cc2ccc(Cl)cc2)CN1C(=O)OC(C)(C)C` [Example 2e, tert-butyl (2S,5S)-5-(4-chlorobenzyl)-2-isobutyl-4-(1-(pyridin-2-yl)piperidin-4-yl)piperazine-1-carboxylate], the IC50 is > 100 µM.

On to `COCCOCCOCCOCCOCCOCCOCCOCCOCCOCCOCCOCCC(=O)OC[C@H]1CN(C2CCN(c3ccccn3)CC2)[C@@H](Cc2ccc(Cl)cc2)CO1` [Example 7, ((2R,5S)-5-(4-chlorobenzyl)-4-(1-(pyridin-2-yl)piperidin-4-yl)morpholin-2-yl)methyl 2,5,8,11,14,17,20,23,26,29,32,35-dodecaoxaoctatriacontan-38-oate 2,2,2-trifluoroacetate], for which the IC50 was 0.1 to 1 µM.

Turning to `C[C@H]1CN(C2CCN(C(=O)OC(C)(C)C)CC2)[C@@H](Cc2ccc(Cl)cc2)CO1` [Example 8d, tert-butyl 4-((2S,5S)-5-(4-chlorobenzyl)-2-methylmorpholino)piperidine-1-carboxylate], the IC50 is > 100 µM.

For `C[C@H]1CN(C2CCN(c3ccc(F)cn3)CC2)[C@@H](Cc2ccc(Cl)cc2)CO1` [Example 9, (2S,5S)-5-(4-chlorobenzyl)-4-(1-(5-fluoropyridin-2-yl)piperidin-4-yl)-2-methylmorpholine 2,2,2-trifluoroacetate], the 50% inhibitory concentration (IC50) was in the range of 1 to 10 µM.

Take `C[C@H]1CN(C2CCN(c3ccc(Cl)cn3)CC2)[C@@H](Cc2ccc(Cl)cc2)CO1` [Example 11, (2S,5S)-5-(4-chlorobenzyl)-4-(1-(5-chloropyridin-2-yl)piperidin-4-yl)-2-methylmorpholine 2,2,2-trifluoroacetate]: the IC50 was in the range of 0.1 to 1 µM.

For the molecule `C[C@H]1CN(C2CCN(c3cnccn3)CC2)[C@@H](Cc2ccc(Cl)cc2)CO1` [Example 12, (2S,5S)-5-(4-chlorobenzyl)-2-methyl-4-(1-(pyrazin-2-yl)piperidin-4-yl)morpholine 2,2,2-trifluoroacetate], the half-maximal inhibitory concentration (IC50) fell in the range of 1 to 10 µM.

`C[C@H]1CN(C2CCN(c3cccc(Cl)n3)CC2)[C@@H](Cc2ccc(Cl)cc2)CO1` [Example 14, (2S,5S)-5-(4-chlorobenzyl)-4-(1-(6-chloropyridin-2-yl)piperidin-4-yl)-2-methylmorpholine 2,2,2-trifluoroacetate] registered a half-maximal inhibitory concentration (IC50) of 1 to 10 µM.

Turning to `C[C@H]1CN(C2CCN(c3ccnc(F)c3)CC2)[C@@H](Cc2ccc(Cl)cc2)CO1` [Example 15, (2S,5S)-5-(4-chlorobenzyl)-4-(1-(2-fluoropyridin-4-yl)piperidin-4-yl)-2-methylmorpholine 2,2,2-trifluoroacetate], the IC50 lay within 1 to 10 µM.

Turning to `Cc1cccnc1N1CCC(N2C[C@H](C)OC[C@@H]2Cc2ccc(Cl)cc2)CC1` [Example 16, (2S,5S)-5-(4-chlorobenzyl)-2-methyl-4-(1-(3-methylpyridin-2-yl)piperidin-4-yl)morpholine 2,2,2-trifluoroacetate], the concentration for half-maximal inhibition (IC50) is > 100 µM.

For `C[C@H]1CN(C2CCN(c3cccc(C#N)n3)CC2)[C@@H](Cc2ccc(Cl)cc2)CO1` [Example 18, 6-(4-((2S,5S)-5-(4-chlorobenzyl)-2-methylmorpholino)piperidin-1-yl)picolinonitrile 2,2,2-trifluoroacetate], the IC50 was > 100 µM.

For `C[C@H]1CN(C2CCN(c3ccc(C#N)cn3)CC2)[C@@H](Cc2ccc(Cl)cc2)CO1` [Example 19, 6-(4-((2S,5S)-5-(4-chlorobenzyl)-2-methylmorpholino)piperidin-1-yl)nicotinonitrile 2,2,2-trifluoroacetate], the IC50 was > 100 µM.

For `C[C@H]1CN(C2CCN(c3cc(C(F)(F)F)ccn3)CC2)[C@@H](Cc2ccc(Cl)cc2)CO1` [Example 20, (2S,5S)-5-(4-chlorobenzyl)-2-methyl-4-(1-(4-(trifluoromethyl)pyridin-2-yl)piperidin-4-yl)morpholine 2,2,2-trifluoroacetate], the IC50 fell in the range of 1 to 10 µM.

Turning to `C[C@H]1CN(C2CCN(c3ncccc3C#N)CC2)[C@@H](Cc2ccc(Cl)cc2)CO1` [Example 22, 2-(4-((2S,5S)-5-(4-chlorobenzyl)-2-methylmorpholino)piperidin-1-yl)nicotinonitrile 2,2,2-trifluoroacetate], the IC50 was 0.1 to 1 µM.

On to `C[C@H]1CN(C2CCN(c3ncccc3Cl)CC2)[C@@H](Cc2ccc(Cl)cc2)CO1` [Example 23, (2S,5S)-5-(4-chlorobenzyl)-4-(1-(3-chloropyridin-2-yl)piperidin-4-yl)-2-methylmorpholine 2,2,2-trifluoroacetate], for which the 50% inhibitory concentration (IC50) lay within 1 to 10 µM.

Turning to `C[C@H]1CN(C2CCN(c3cc(F)ncn3)CC2)[C@@H](Cc2ccc(Cl)cc2)CO1` [Example 24, (2S,5S)-5-(4-chlorobenzyl)-4-(1-(6-fluoropyrimidin-4-yl)piperidin-4-yl)-2-methylmorpholine 2,2,2-trifluoroacetate], the 50% inhibitory concentration (IC50) was > 100 µM.

As to `C[C@H]1CN(C2CCN(c3ncc(F)cc3F)CC2)[C@@H](Cc2ccc(Cl)cc2)CO1` [Example 25, (2S,5S)-5-(4-chlorobenzyl)-4-(1-(3,5-difluoropyridin-2-yl)piperidin-4-yl)-2-methylmorpholine 2,2,2-trifluoroacetate], the IC50 is > 100 µM.

For `C[C@H]1CN(C2CCN(c3ccncn3)CC2)[C@@H](Cc2ccc(Cl)cc2)CO1` [Example 26, (2S,5S)-5-(4-chlorobenzyl)-2-methyl-4-(1-(pyrimidin-4-yl)piperidin-4-yl)morpholine 2,2,2-trifluoroacetate], the IC50 was > 100 µM.

`C[C@H]1CN(C2CCN(c3cccnc3)CC2)[C@@H](Cc2ccc(Cl)cc2)CO1` [Example 27, (2S,5S)-5-(4-chlorobenzyl)-2-methyl-4-(1-(pyridin-3-yl)piperidin-4-yl)morpholine 2,2,2-trifluoroacetate]: the IC50 was > 100 µM.

Turning to `C[C@H]1CN(C2CCN(c3ccncc3)CC2)[C@@H](Cc2ccc(Cl)cc2)CO1` [Example 28, (2S,5S)-5-(4-chlorobenzyl)-2-methyl-4-(1-(pyridin-4-yl)piperidin-4-yl)morpholine 2,2,2-trifluoroacetate], the IC50 is > 100 µM.

`COc1ccnc(N2CCC(N3C[C@H](C)OC[C@@H]3Cc3ccc(Cl)cc3)CC2)c1` [Example 29, (2S,5S)-5-(4-chlorobenzyl)-4-(1-(4-methoxypyridin-2-yl)piperidin-4-yl)-2-methylmorpholine 2,2,2-trifluoroacetate]: the IC50 lay in the range of 0.1 to 1 µM.

Molecule `Cc1cnnc(N2CCC(N3C[C@H](C)OC[C@@H]3Cc3ccc(Cl)cc3)CC2)c1` [Example 30, (2S,5S)-5-(4-chlorobenzyl)-2-methyl-4-(1-(5-methylpyridazin-3-yl)piperidin-4-yl)morpholine 2,2,2-trifluoroacetate] had an IC50 of 1 to 10 µM.

In the case of `CC1CC(N2C[C@H](C)OC[C@@H]2Cc2ccc(Cl)cc2)CCN1c1cc(Cl)ccn1` (stereo partly drawn) [Example 33, (2S,5S)-5-(4-chlorobenzyl)-4-(1-(4-chloropyridin-2-yl)-2-methylpiperidin-4-yl)-2-methylmorpholine 2,2,2-trifluoroacetate], the IC50 lay in the range of 1 to 10 µM.

The values above are taken from patent US20230278996A1, “YKL-40 INHIBITORS AND THEIR THERAPEUTIC APPLICATIONS” (Molecure S.A., priority 2022, published 2023).
